Data published in US10780081B2, “Method of treating multiple sclerosis employing a LSD1-inhibitor” (ORYZON GENOMICS, S.A., priority 2016, dated 2020).

Assays:
[1] = Tolerability at therapeutic doses; type: in vivo
[2] = tested on: Experimental Autoimmune Encephalomyelitis (EAE); test: Experimental autoimmune encephalomyelitis (EAE) model, MOG35-55, daily clinical score; type: in vivo, C57BL/6 mice
Description: To induce chronic EAE by active immunization, C57BL/6 mice were immunized s.c. with 100 μg of myelin oligodendrocyte glycoprotein MOG35-55 emulsified in complete Freund's adjuvant (CFA) containing 4 mg/ml Mycobacterium tuberculosis H37 RA. Mice also received i.p. injections of 200 ng of pertussis toxin on days 0 and 2.
Mice were scored daily for signs of EAE according to the following clinical scoring system: 0, no clinical signs; 0.5, partial loss of tail tonicity; 1, complete loss of tail tonicity; 2, flaccid tail and abnormal gait; 3, hind leg paralysis; 4, hind leg paralysis with hind body paresis; 5, hind and fore leg paralysis; and 6, death.
Control mice were orally treated with vehicle [2% v/v Tween-80+98% HPβCD (13% w/v)] following the same regime of administration. Mice were scored daily for signs of EAE according to clinical scoring system described in Example 3.1. n=10 mice/group. […]. […] Mice were scored daily for signs of EAE, using the scores described in Example 3.1. Animals were sacrificed on day 26 postimmunization and samples were collected and processed as described below. n=10 mice/group.

Human recombinant LSD1 = biological target: T1, Human recombinant LSD1 (Homo sapiens, UniProt O60341); test: LSD1 in vitro biochemical assay (Amplex Red, di-methylated H3-K4 peptide); settings: read-out: IC50 against LSD1
T1 construct: amino acids 158-end with N-terminal GST tag; GST (N); purchased BPS Bioscience Inc 50100
Source text: In order to monitor LSD1 enzymatic activity and/or its inhibition rate by a test compound, di-methylated H3-K4 peptide (Anaspec) was chosen as a substrate. The demethylase activity was estimated, under aerobic conditions, by measuring the release of H2O2 produced during the catalytic process, using the Amplex® Red hydrogen peroxide/peroxidase assay kit (Invitrogen).
Tranylcypromine (Biomol International) was used as a control for inhibition. Within the experiment, each concentration of inhibitor was tested in duplicate. After leaving the enzyme interacting with the inhibitor, KM of di-methylated H3-K4 peptide was added to each reaction and the experiment was left for 30 minutes at 37° C. in the dark. The enzymatic reactions were set up in a 50 mM sodium phosphate, pH 7.4 buffer. […] The conversion of the Amplex® Red reagent to resorufin due to the presence of H2O2 in the assay, was monitored by fluorescence (excitation at 540 nm, emission at 590 nm) using a microplate reader (Infinite 200, Tecan). […] The maximum demethylase activity of LSD1 was obtained in the absence of inhibitor and corrected for background fluorescence in the absence of LSD1. The IC50 value of each inhibitor was calculated with GraphPad Prism Software.

[3] = tested on: IL-4, IL-6, IL-1beta, IP-10, MCP-1 in spinal cord; test: Cytokine/chemokine levels in spinal cord of EAE mice by ELISA; type: in vivo, C57BL/6 mice; settings: 0.5 mg/kg p.o., day 26, vs vehicle
Description: (§1) Mice were scored daily for signs of EAE, using the scores described in Example 3.1. Animals were sacrificed on day 26 postimmunization and samples were collected and processed as described below. n=10 mice/group.
Protein extraction and cytokine/chemokine analysis. Proteins were extracted from cervical and lumbar segments of spinal cord by homogenization (50 mg tissue/[…]) in lysis buffer (50 mM Tris-HCl, pH 7.4, 0.5 mM DTT, and 10 μg/ml proteinase inhibitors PMSF, pepstatin, and leupeptin). Samples were centrifuged (20.000×g, 15 min, 4° C.) and the supernatants were assayed for protein concentration (using Bradford method) and for cytokine/chemokine contents by using specific sandwich ELISAs for IL-4, IL-6, IL-1beta, IP-10 and MCP-1, according to manufacturer's recommendations, using the following antibodies and recombinant proteins:
(§2) Statistical Analysis: Cell number analysis in lymph nodes and spleen: statistical differences are indicated as ***p<0.001 vs vehicle using ANOVA test. Cytokine/chemokine level analysis: statistical differences are indicated as: *p<0.05, **p<0.005, using Mann-Whitney test; unpaired t-test was used for IP-10 level analysis.

[4] = tested on: demyelination and inflammatory cell infiltration in spinal cord; test: Histopathological analysis of spinal cord in EAE mice (Kluver-Barrera); type: in vivo, C57BL/6 mice; settings: 0.5 mg/kg p.o., day 26 postimmunization
Description: as §1
(§3) Tissue collection and cell isolation. On day 26 postimmunization, spleen, draining lymph nodes (DLNs: cervicals, inguinals and axillaries), and spinal cord were removed. Spinal segments of the cervical and lumbar regions were prepared separately and processed for protein extraction, and histopathological analysis. Single-cell suspensions were obtained from spleen or pooled lymph nodes, the samples were homogenized and total number of cells was quantified using Neubauer chamber.
Processing of samples for histopathological analysis. Cervical and lumbar spinal cord segments were divided and processed for inclusion and sectioning in paraffin. Spinal cord segments were immediately fixed with buffered 10% formalin for 48h, dehydrated and included in paraffin using standard techniques. Transversal sections (4-μm thickness) were stained with Luxol fast blue, cresyl violet, and hematoxylin following the Klüver-Barrera technique and were analyzed for the presence of areas of demyelination and cell infiltration using a light microscope (Leica, DM2000).

Human recombinant MAO-A = biological target: T2, Human recombinant MAO-A (Homo sapiens, UniProt P21397); test: MAO-A kynuramine fluorescence assay; type: biochemical
T2 construct: purchased Sigma Aldrich
T2 sequence (P21397 1-527): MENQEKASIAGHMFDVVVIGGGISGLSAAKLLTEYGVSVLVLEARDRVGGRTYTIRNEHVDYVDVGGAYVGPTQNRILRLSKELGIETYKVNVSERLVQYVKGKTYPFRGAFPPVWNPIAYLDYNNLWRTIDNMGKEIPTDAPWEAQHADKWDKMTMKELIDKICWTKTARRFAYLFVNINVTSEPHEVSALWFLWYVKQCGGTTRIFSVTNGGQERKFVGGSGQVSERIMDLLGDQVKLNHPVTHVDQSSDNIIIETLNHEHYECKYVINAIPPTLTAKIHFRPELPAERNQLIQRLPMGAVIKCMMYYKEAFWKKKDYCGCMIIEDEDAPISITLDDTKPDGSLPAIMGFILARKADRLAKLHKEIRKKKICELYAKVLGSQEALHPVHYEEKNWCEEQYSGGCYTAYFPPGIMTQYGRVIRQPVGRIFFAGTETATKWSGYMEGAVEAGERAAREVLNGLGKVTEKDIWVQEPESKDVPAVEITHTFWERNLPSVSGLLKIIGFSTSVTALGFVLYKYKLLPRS
Source text: Human recombinant monoamine oxidase proteins MAO-A and MAO-B were purchased from Sigma Aldrich. MAOs catalyze the oxidative deamination of primary, secondary and tertiary amines. In order to monitor MAO enzymatic activities and/or their inhibition rate by inhibitor(s) of interest, a fluorescence-based (inhibitor)-screening assay was set up. 3-(2-Aminophenyl)-3-oxopropanamine (kynuramine dihydrobromide, Sigma Aldrich), a non fluorescent compound was chosen as a substrate. Kynuramine is a non-specific substrate for both MAO-A and MAO-B activities. While undergoing oxidative deamination by MAO activities, kynuramine is converted into 4-hydroxyquinoline (4-HQ), a resulting fluorescent product.
The monoamine oxidase activity was estimated by measuring the conversion of kynuramine into 4-hydroxyquinoline. […]
After leaving the enzyme(s) interacting with the inhibitor, KM of kynuramine was added to each reaction for MAO-B and MAO-A assay respectively, and the reaction was left for 1 hour at 37° C. in the dark. […] The conversion of kynuramine to 4-hydroxyquinoline, was monitored by fluorescence (excitation at 320 nm, emission at 360 nm) using a microplate reader (Infinite 200, Tecan). Arbitrary units were used to measure levels of fluorescence produced in the absence and/or in the presence of inhibitor.
The IC50 values of each inhibitor were calculated with GraphPad Prism Software.

[5] = tested on: immune cells in spleen and lymph nodes; test: Number of immune cells in spleen and lymph nodes of EAE mice; type: in vivo, C57BL/6 mice; settings: 0.5 mg/kg p.o., day 26 postimmunization, vs vehicle
Description: as §1, §3, §2

Row | Compound | Tolerability on long-term treatment ([1]; 0.5 mg/kg p.o., mice) | Effects on hematology or circulating lymphocyte counts, gastro-intestinal toxicity ([1]; at therapeutically effective doses, no method or species printed) | Development of EAE, disease incidence and severity by daily clinical score ([2]; 0.5 mg/kg p.o., Example 4) | Development of EAE, disease incidence and severity by daily clinical score ([2]; 1 or 3 mg/kg p.o., days 12-16 and 19-23 postimmunization) | Mice displaying mild symptoms ([2]; 1 or 3 mg/kg p.o., therapeutic regime) | Mice almost completely recovered ([2]; 1 or 3 mg/kg p.o., 40 days after disease onset) | Dose at which clinical score in EAE is reduced (as low as) ([2]; p.o., tested at 1, 0.5 and 0.05 mg/kg) | IC50 (Human recombinant LSD1) | IL-1 beta level in spinal cord [3] | IL-4 level in spinal cord [3] | IL-6 level in spinal cord [3] | IP-10 level in spinal cord [3] | MCP-1 level in spinal cord [3] | Inflammatory cell infiltration and demyelination areas in cervical and lumbar spinal cord [4] | Mean number of demyelination plaques in cervical and lumbar spinal cord [4] | IC50 (Human recombinant MAO-A) | Number of immune cells retained in spleen and lymph nodes [5] | Effect on EAE clinical score ([2]; 0.06 and 0.180 mg/kg p.o., same scheme as Example 3.1)
1 | Nc1nnc(CN[C@@H]2C[C@H]2c2ccc(OCc3ccccc3)cc2)o1 (single isomer, unassigned) [Compound 1, (−) 5-((((trans)-2-(4-(benzyloxy)phenyl)cyclopropyl)amino)methyl)-1,3,4-oxadiazol-2-amine] | well-tolerated | do not produce clinically relevant effects on hematology or circulating lymphocyte counts | greatly inhibited the development of EAE | greatly inhibited the development of EAE | 40-70% | 30% | ≤ 0.05 mg/kg | 0.09 µM | reduced | significantly increased | reduced | significantly reduced | significantly reduced | no inflammatory cell infiltration nor demyelination areas were observed | absent or greatly reduced demyelination | 5.3 µM | significant increase | –
2 | Fc1ccccc1[C@@H]1C[C@H]1NC1CCNCC1 [ORY-LSD1, N-((1R,2S)-2-(2-fluorophenyl)cyclopropyl)piperidin-4-amine, reference compound] | – | – | – | – | – | – | – | – | – | – | – | – | – | – | – | – | – | clear tendency for improvement
